Broadly, the IC50 is the concentration at which inhibition is half-maximal.

The structures appear in SMILES notation. Some results are limits rather than exact numbers.

For data set [1] the following is noted: RESOLVE-IT, NCT02704403; cited from earlier work.
For data set [2], the target named is T1, recombinant human full-length HSD17B13 protein (Homo sapiens, UniProt Q7Z5P4).
T1 construct: recombinant human full-length HSD17B13 protein; 6xHis (C); made in house; host or cells: HEK293E-253/FH
T1 sequence (Q7Z5P4 20-300): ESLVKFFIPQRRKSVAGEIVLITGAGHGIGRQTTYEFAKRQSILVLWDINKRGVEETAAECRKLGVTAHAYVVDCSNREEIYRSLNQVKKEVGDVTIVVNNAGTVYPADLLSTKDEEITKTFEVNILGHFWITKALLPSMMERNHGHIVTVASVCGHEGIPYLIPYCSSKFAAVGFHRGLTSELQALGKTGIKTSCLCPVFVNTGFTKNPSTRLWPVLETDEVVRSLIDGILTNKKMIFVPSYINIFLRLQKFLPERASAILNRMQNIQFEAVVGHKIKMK
Nature of the data set: HSD17B13 96 luminescence inhibition assay (NAD(P)H-Glo). The class given is biochemical. How it is done:
Compounds of the present disclosure were tested for inhibition of HSD17B13 using the following protocol. Briefly, recombinant human full-length HSD17B13 protein with a 6X-C-terminal His tag was expressed in cell line HEK293E-253/FH and purified using Ni^2+-affinity purification. Enzymatic activity was determined through the production of NADH using the NAD(P)H-Glo Detection System (Promega). The inhibitory activity of test compounds was determined in reactions performed at 30° C. in assay buffer consisting of 25 mM EPPS (8.0), 125 mM NaCl, 0.03% Triton X-100, 0.03% BSA, with […] steroid substrate (1,3,5(10), 7-estratetraen-3, 17b-diol (Steraloids E0580)) added from a 2.5 mM DMSO stock and 500 mM NAD. The final percentage of DMSO was 4.5%. After a one-hour incubation, a 20% volume of luciferase Glo-reagent was added and light units captured on a Victor V Plate Reader (Perkin Elmer).
Concentration-response curves for inhibitors were normalized to control samples containing enzyme only (negative control) and sample without enzyme (positive control). 50% inhibition (IC50) values were determined using a nonlinear least squares fit of the data to a four-parameter equation using Prism 6.0 (GraphPad Software, San Diego).

In data set [3] the test system is IL-8. Nature of the data set: IL-8 gene expression in HepG2 cells overexpressing HSD17B13 under fatty acid challenge. It is filed as cell-based, human. Here is the method:
(§1) To examine the effect of HSD17B13 inhibitors on inflammatory cytokine expression HepG2 cells were exposed to various concentrations of HSD17B13 inhibitors. Briefly, HepG2 cells, an immortalized human liver cancer cell line, were modified to overexpress HSD17B13. Cells were grown in EMEM (ATCC) with 10% FBS and penicillin/streptomycin. One day prior to transfection 750,000 cells were plated per well in a 6 well plate and cultured overnight. […] of pCMV6-Entry-HSD17B13 or empty vector (Origene) were transfected using Lipofectamine 3000 (Invitrogen) and the cells were cultured for 24 hours. Cells were split into selection media ([…] G418 (Gibco)) and a stable pool was established and verified by qPCR and western blotting using an anti-Flag antibody (Genscript). HepG2 cells overexpressing HSD17B13 or empty vector control, were seeded at 400,000 cells per well in 12 well plates and cultured overnight. Media was replaced with serum-free EMEM and cultured an additional night. […]
(§2) […] RNA quality and concentration were determined on a Nanodrop. cDNA was synthesized from 1 μg RNA using iScript reverse transcription supermix (Biorad) and rtPCR performed with 1 μl cDNA using SsoAdvanced Universal Probes Supermix (Biorad). […]

In data set [4] the test system is IL-32. Nature of the data set: IL-32 gene expression in HepG2 cells overexpressing HSD17B13 under fatty acid challenge. It is filed as cell-based, human. Here is the method:
To examine the effect of HSD17B13 inhibitors on inflammatory cytokine expression HepG2 cells were exposed to various concentrations of HSD17B13 inhibitors. Briefly, HepG2 cells, an immortalized human liver cancer cell line, were modified to overexpress HSD17B13. Cells were grown in EMEM (ATCC) with 10% FBS and penicillin/streptomycin. One day prior to transfection 750,000 cells were plated per well in a 6 well plate and cultured overnight. […] of pCMV6-Entry-HSD17B13 or empty vector (Origene) were transfected using Lipofectamine 3000 (Invitrogen) and the cells were cultured for 24 hours. Cells were split into selection media ([…] G418 (Gibco)) and a stable pool was established and verified by qPCR and western blotting using an anti-Flag antibody (Genscript). HepG2 cells overexpressing HSD17B13 or empty vector control, were seeded at 400,000 cells per well in 12 well plates and cultured overnight. Media was replaced with serum-free EMEM and cultured an additional night. A 12 mM fatty acid stock of oleic acid/palmitate at a 2:1 ratio was prepared in 10% fatty acid free BSA (Sigma) by combining 8 mM oleic acid and 4 mM palmitate and rotating overnight at 30° C. The solution was then sonicated for an additional 45 minutes to solubilize.
[…] The cells were lysed in RLT buffer and RNA purified using a Qiagen RNeasy mini kit. RNA quality and concentration were determined on a Nanodrop. cDNA was synthesized from 1 μg RNA using iScript reverse transcription supermix (Biorad) and rtPCR performed with 1 μl cDNA using SsoAdvanced Universal Probes Supermix (Biorad). Taqman probes (Thermo Fisher) were used to look at effects of fatty acids and HSD17B13 inhibitors on IL-8 and IL-32 gene expression using GAPDH as an endogenous control.

Data set [5] deals with HepG2 cells. The experiment in a line: Toxicity to HepG2 cells in the cytokine expression experiment. The class given is cell-based, human. Particulars: 30 μM. How it is done: as §1, §2
The mark [6] stands for this setting: 3 µM, 10 µM, or 30 µM, saturated fatty acid NASH challenge.
The mark [7] stands for this setting: 3-hour exposure to 3 μM, 10 μM, or 30 μM, fold change relative to untreated cells.

With `CSc1ccc(C(=O)/C=C/c2cc(C)c(OC(C)(C)C(=O)O)c(C)c2)cc1` [Elafibranor], the “Status (as of May 2020)” value in data set [1] is “Completed - failed”.
For the molecule `NS(=O)(=O)c1cccc(CN2C(=O)S/C(=C\c3ccc(F)c(O)c3)C2=O)c1` [Compound 33, (Z)-3-((5-(4-fluoro-3-hydroxybenzylidene)-2,4-dioxothiazolidin-3-yl)methyl) benzenesulfonamide], the concentration for half-maximal inhibition (IC50) in data set [2] is ≤ 1 µM.
Turning to `O=C(NCc1cccc(-c2nnn[nH]2)c1)c1ccc2cc(F)c(O)cc2n1` [Compound 25, N-(3-(1H-tetrazol-5-yl)benzyl)-6-fluoro-7-hydroxyquinoline-2-carboxamide], the IC50 in data set [2] is > 5 µM.
With `O=C1S/C(=C\c2ccc(F)c(O)c2)C(=O)N1Cc1cccc(OC(F)(F)F)c1` [Compound 16, (Z)-5-(4-fluoro-3-hydroxybenzylidene)-3-(3-(trifluoromethoxy)benzyl) thiazolidine-2,4-dione], the IC50 in data set [2] is > 5 µM.
The same measure, in the same setting: the figure for `COc1cc(CN2C(=O)S/C(=C\c3c(F)cc(F)c(O)c3F)C2=O)ccn1` [Compound 22, (Z)-3-((2-methoxypyridin-4-yl)methyl)-5-(2,4,6-trifluoro-3-hydroxybenzylidene) thiazolidine-2,4-dione] is ≤ 1 µM; for `O=C1S/C(=C\c2ccc(F)c(O)c2)C(=O)N1Cc1cc(O)cc(F)c1` [Compound 9, (Z)-5-(4-fluoro-3-hydroxybenzylidene)-3-(3-fluoro-5-hydroxybenzyl)thiazolidine-2,4-dione] it is 1 to 5 µM; for `O=C1S/C(=C\c2ccc3nn[nH]c3c2)C(=O)N1Cc1cccc(O)c1` [Compound 38, (Z)-5-((1H-benzo[d][1,2,3]triazol-6-yl)methylene)-3-(3-hydroxybenzyl)thiazolidine-2,4-dione] it is ≤ 1 µM.
On the same count and under the same terms, the figure for `O=C(c1ccc(-c2ccc(F)c(O)c2F)s1)c1c(F)cc(F)c(O)c1F` [Compound 29, (5-(2,4-difluoro-3-hydroxyphenyl)thiophen-2-yl)(2,4,6-trifluoro-3-hydroxyphenyl)methanone] is 1 to 5 µM; for `CS(=O)(=O)Nc1cccc(CN2C(=O)S/C(=C\c3ccc(F)c(O)c3)C2=O)c1` [Compound 20, N-(3-{[(5Z)-5-[(4-fluoro-3-hydroxyphenyl)methylidene]-2,4-dioxo-1,3-thiazolidin-3-yl]methyl}phenyl)methanesulfonamide] it is > 5 µM.
Regarding `NC(=O)c1cccc(CN2C(=O)S/C(=C\c3ccc(F)c(O)c3)C2=O)c1` [Compound 18, (Z)-3-((5-(4-fluoro-3-hydroxybenzylidene)-2,4-dioxothiazolidin-3-yl)methyl) benzamide], in data set [2], the IC50 fell in the range of 1 to 5 µM.
On the same count and under the same terms, with `O=C1S/C(=C\c2ccc(F)c(O)c2)C(=O)N1Cc1cccc(O)c1` [Compound 11, (Z)-5-(4-fluoro-3-hydroxybenzylidene)-3-(3-hydroxybenzyl)thiazolidine-2,4-dione] the figure was 1 to 5 µM; with `O=C1S/C(=C\c2c(F)cc(F)c(O)c2F)C(=O)N1Cc1cccc(O)c1` [Compound 4, (Z)-3-(3-hydroxybenzyl)-5-(2,4,6-trifluoro-3-hydroxybenzylidene)thiazolidine-2,4-dione], 1 to 5 µM; with `O=C1S/C(=C\c2ccc(F)c(O)c2)C(=O)N1Cc1cccc(-c2c[nH]nn2)c1` [Compound 15, (Z)-3-(3-(1H-1,2,3-triazol-4-yl)benzyl)-5-(4-fluoro-3-hydroxybenzylidene) thiazolidine-2,4-dione], 1 to 5 µM.
Same read-out and setting: with `O=C1S/C(=C\c2ccc(F)c(O)c2)C(=O)N1CC1CCOCC1` [Compound 14, (Z)-5-(4-fluoro-3-hydroxybenzylidene)-3-((tetrahydro-2H-pyran-4-yl)methyl)thiazolidine-2,4-dione] the figure was > 5 µM; with `O=C1O/C(=C\c2ccc(F)c(O)c2)C(=O)N1CC1CCOCC1` [Compound 13, (Z)-5-(4-fluoro-3-hydroxybenzylidene)-3-((tetrahydro-2H-pyran-4-yl)methyl) oxazolidine-2,4-dione], 1 to 5 µM; with `N#Cc1cccc(CN2C(=O)S/C(=C\c3ccc(F)c(O)c3)C2=O)c1` [Compound 19, (Z)-3-((5-(4-fluoro-3-hydroxybenzylidene)-2,4-dioxothiazolidin-3-yl)methyl) benzonitrile], 1 to 5 µM.
On the same count and under the same terms, with `O=C1S/C(=C\c2ccc(F)c(O)c2)C(=O)N1Cc1cccc(C(F)(F)F)c1` [Compound 17, (Z)-5-(4-fluoro-3-hydroxybenzylidene)-3-(3-(trifluoromethyl)benzyl)thiazolidine-2,4-dione] the figure was 1 to 5 µM.
On to `CS(=O)(=O)c1cccc(CN2C(=O)S/C(=C\c3c(F)cc(F)c(O)c3F)C2=O)c1` [Compound 5, (Z)-3-(3-(methylsulfonyl)benzyl)-5-(2,4,6-trifluoro-3-hydroxybenzylidene) thiazolidine-2,4-dione], for which, in data set [2], the IC50 is ≤ 1 µM. Moreover, in data set [3] (setting [6]), the “expression of IL-8 (FIG. 1A)” value is on record as “decreased expression”. Besides, the “relative expression levels of IL-8” value in data set [3] (setting [7]) was “decreased”. In addition, in data set [4] (3 μM dose), the “reduction in IL-32 expression” value is 60-70%. Moreover, the “expression of IL-32 (FIG. 1B)” value in data set [4] (setting [6]) is given as “decreased expression”. Besides, the “relative expression levels of IL-32” value in data set [4] (setting [7]) is on record as “decreased”. Besides, in data set [5], the “toxicity to the cells” value was “some toxicity”.
With `O=C1S/C(=C\c2cc(F)c(F)c(O)c2F)C(=O)N1Cc1cccc(O)c1` [Compound 3, (Z)-3(3-hydroxybenzyl)-5-(2,4,5-trifluoro-3-hydroxybenzylidene)thiazolidine-2,4-dione], in data set [2], the IC50 lay in the range of 1 to 5 µM.
Consider `O=C(c1ccc(F)c(O)c1)c1ccc(-c2ccc(F)c(O)c2F)s1` [Compound 28, (5-(2,4-difluoro-3-hydroxyphenyl)thiophen-2-yl)(4-fluoro-3-hydroxyphenyl) methanone], for which the IC50 in data set [2] lay within 1 to 5 µM.
Same read-out and setting: the figure for `O=C1S/C(=C\c2cc(O)c(F)c(F)c2)C(=O)N1Cc1cccc(O)c1` [Compound 7, (5Z)-5-[(3,4-difluoro-5-hydroxyphenyl)methylidene]-3-[(3-hydroxyphenyl)methyl]-1,3-thiazolidine-2,4-dione] is 1 to 5 µM; for `O=C1S/C(=C\c2c(F)cc(F)c(O)c2F)C(=O)N1Cc1ccc(=O)[nH]c1` [Compound 35, (5Z)-3-[(6-oxo-1,6-dihydropyridin-3-yl)methyl]-5-[(2,4,6-trifluoro-3-hydroxyphenyl)methylidene]-1,3-thiazolidine-2,4-dione] it is ≤ 1 µM.
As to `NS(=O)(=O)c1cccc(CN2C(=O)S/C(=C\c3c(F)cc(F)c(O)c3F)C2=O)c1` [Compound 34, (Z)-3-((2,4-dioxo-5-(2,4,6-trifluoro-3-hydroxybenzylidene)thiazolidin-3-yl)methyl)benzenesulfonamide], the IC50 in data set [2] is ≤ 1 µM.
`COc1cccc(CNC(=O)c2ccc3cc(F)c(O)c(F)c3n2)c1` [Compound 39, 6,8-difluoro-7-hydroxy-N-[(3-methoxyphenyl)methyl]quinoline-2-carboxamide]: the IC50 in data set [2] lay in the range of 1 to 5 µM.

The values above are taken from US20230339871A1, “COMPOUNDS AND METHODS OF MODULATING 17B-HYDROXYSTEROID DEHYDROGENASE TYPE 13” (METREA BIOSCIENCES, INC., priority 2020, published 2023).
